# Square brackets hold non-standard residues; d marks the D form. Ends that are not written are not given here. Peptide text beside a SMILES is read from it. pS = N[C@@H](COP(=O)(O)O)C(=O)O
# Key:
# SNTG2 PDZ [1] = biological target: T1, SNTG2 PDZ (Homo sapiens, UniProt Q9NY99); assay: Holdup assay; type: binding; settings: composite holdup affinity; 0.00=below quantification threshold; read-out: COMP pKd (converted)
# T1 sequence (Q9NY99 73-156 limits assumed): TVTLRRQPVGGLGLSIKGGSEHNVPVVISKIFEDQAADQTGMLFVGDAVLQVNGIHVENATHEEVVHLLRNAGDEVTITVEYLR
# SNTG2 PDZ [2] = biological target: T1, SNTG2 PDZ; assay: Competitive fluorescence polarization (FP) assay; type: binding; settings: read-out: pKd FP (converted)
# SNX27 PDZ = SNX27 PDZ (Homo sapiens, UniProt Q96L92); assay: Holdup assay; type: binding
# DLG1_2 PDZ = DLG1_2 PDZ (Homo sapiens, UniProt Q12959); assay: Holdup assay; type: binding; settings: PBM motif of the named protein vs DLG1_2 PDZ; read-out: pKd values – domain-motif, DLG1_2 (converted)
# DLG1_1 PDZ = DLG1_1 PDZ (Homo sapiens, UniProt Q12959); assay: Holdup assay; type: binding; settings: PBM motif of the named protein vs DLG1_1 PDZ; read-out: pKd values – domain-motif, DLG1_1 (converted)
# SCRIB_1 PDZ = SCRIB_1 PDZ (Homo sapiens, UniProt Q14160); assay: Holdup assay; type: binding; settings: PBM motif of the named protein vs SCRIB_1 PDZ; read-out: pKd values – domain-motif, SCRIB_1 (converted)
# TX1BP3 PDZ = biological target: T2, TX1BP3 PDZ (Homo sapiens, UniProt O14907); assay: Holdup assay; type: binding; settings: PBM motif of the named protein vs TX1BP3 PDZ; read-out: pKd values – domain-motif, TX1BP3 (converted)
# T2 sequence (O14907 15-112 limits assumed): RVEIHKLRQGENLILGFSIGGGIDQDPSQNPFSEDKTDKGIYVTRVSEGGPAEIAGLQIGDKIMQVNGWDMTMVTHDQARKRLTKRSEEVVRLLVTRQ
# SCRIB2 PDZ = biological target: T3, SCRIB2 PDZ (Homo sapiens, UniProt Q14160); assay: Holdup assay; type: binding; settings: PBM motif of the named protein vs SCRIB_2 PDZ; read-out: pKd values – domain-motif, SCRIB_2 (converted)
# T3 sequence (Q14160 862-950 limits assumed): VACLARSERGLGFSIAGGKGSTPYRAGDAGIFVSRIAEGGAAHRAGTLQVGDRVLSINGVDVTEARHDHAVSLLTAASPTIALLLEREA
# SYNJ2BP PDZ = biological target: T4, SYNJ2BP PDZ (Homo sapiens, UniProt P57105); assay: Holdup assay; type: binding; settings: composite holdup affinity; 0.00=below quantification threshold; read-out: COMP pKd (converted)
# T4 sequence (P57105 13-100 limits assumed): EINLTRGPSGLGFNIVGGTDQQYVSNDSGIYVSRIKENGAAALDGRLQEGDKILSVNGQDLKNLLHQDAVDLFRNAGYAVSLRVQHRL
# HaCat cell extract preys = assay: PDZ-AP-MS, biotinylated MBP-PDZ baits; type: binding, human
# Outline: (§1)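 Biotinylated His6-AviTag-MBP-PDZ baits, or MBP alone, saturated streptavidin resin and were then biotin-blocked. Each was incubated with 1 mg cell lysate for 2 h at 4 °C, washed, and eluted in 8 M urea. Eluates were digested with Lys-C/trypsin, run by nanoLC-MS/MS on an Orbitrap Elite (top20 CID) and searched against human SwissProt.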
# HeLa cell extract preys = assay: PDZ-AP-MS, biotinylated MBP-PDZ baits; type: binding, human; settings: PDZ-AP-MS fold change of the PBM-protein prey
# Outline: as §1
# [3] = system: Jurkat cell extract preys; assay: PDZ-AP-MS, biotinylated MBP-PDZ baits; type: binding, human
# Outline: as §1
# DLG1_1/2 = settings: SPR; ref Kim et al 1998; cited from earlier work
# Text: Supplement 41467_2022_33018_MOESM4_ESM.xlsx, sheet "reference DMI interactome" | column: Affinity (mM); pKd, measured in literature
# [4] = PDZ-AP-MS fold change of the PBM-protein prey, bait MBP-PDZ DLG1_1
# [5] = PDZ-AP-MS fold change of the PBM-protein prey, bait MBP-PDZ DLG1_2
# [6] = PDZ-AP-MS fold change of the PBM-protein prey, bait MBP-PDZ SCRIB_1
# [7] = PDZ-AP-MS fold change of the PBM-protein prey, bait MBP-PDZ SCRIB_2
# [8] = PDZ-AP-MS fold change of the PBM-protein prey, bait MBP-PDZ SNX27
# [9] = PDZ-AP-MS fold change of the PBM-protein prey, bait MBP-PDZ TX1BP3
# [10] = bait DLG1_1 PDZ, fold change of prey
# [11] = bait DLG1_2 PDZ, fold change of prey
# [12] = bait SCRIB_1 PDZ, fold change of prey
# [13] = bait SCRIB_2 PDZ, fold change of prey
# [14] = bait SNX27 PDZ, fold change of prey
# [15] = bait TX1BP3 PDZ, fold change of prey
# SCRIB_1 PDZ, sequence (Q14160 728-815 limits assumed): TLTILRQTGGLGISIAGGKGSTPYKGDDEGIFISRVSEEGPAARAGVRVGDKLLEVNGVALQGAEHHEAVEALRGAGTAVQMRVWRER
molecule,measurement,setting,value
CC[C@H](C)[C@H](NC(=O)[C@H](CCC(N)=O)NC(=O)[C@@H](NC(=O)[C@H](Cc1c[nH]cn1)NC(=O)[C@H](CCC(N)=O)NC(=O)[C@H](CC(=O)O)NC(=O)[C@H](CCC(=O)O)NC(=O)[C@H](CC(=O)O)NC(=O)CCC(=O)NCCCOCCOCCOCCCNC(=O)CCCC[C@@H]1SC[C@@H]2NC(=O)N[C@@H]21)[C@@H](C)O)C(=O)N[C@H](C(=O)N[C@@H](CCCCNC(C)=O)C(=O)N[C@H](C(=O)O)C(C)C)[C@@H](C)O [PTEN_Ac],Kd,SNTG2 PDZ [1],166 µM
same,Kd,SNTG2 PDZ [2],377 µM
SPLHSLETSL [ATP2B1],Kd,SNX27 PDZ,3.31 µM
same,Kd,DLG1_2 PDZ,21.4 µM
same,Kd,DLG1_1 PDZ,75.9 µM
same,Kd,SCRIB_1 PDZ,4.37 µM
same,Kd,TX1BP3 PDZ,35.5 µM
same,Kd,SCRIB2 PDZ,53.7 µM
RVRKLPSTTL [RPS6KA1],Kd,SYNJ2BP PDZ,151 µM
CC(C)C[C@H](NC(=O)[C@@H](NC(=O)[C@@H](NC(=O)[C@H](COP(=O)(O)O)NC(=O)[C@@H]1CCCN1C(=O)[C@H](CC(C)C)NC(=O)[C@H](CCCCN)NC(=O)[C@H](CCCNC(=N)N)NC(=O)[C@@H](NC(=O)[C@@H](N)CCCNC(=N)N)C(C)C)[C@@H](C)O)[C@@H](C)O)C(=O)O [p-3 phosphorylated RPS6KA1] (H-RVRKLP[pS]TTL-OH),Kd,SYNJ2BP PDZ,33.1 µM
SSLQSLETSV-OH [ATP2B4],"Fold changes, HaCat, DLG1_1",HaCat cell extract preys; [4],6.858
same,"Fold changes, HaCat, DLG1_2",HaCat cell extract preys; [5],9.323
same,"Fold changes, HaCat, SCRIB_1",HaCat cell extract preys; [6],1.193
same,"Fold changes, HaCat, SCRIB_2",HaCat cell extract preys; [7],2.996
same,"Fold changes, HaCat, SNX27",HaCat cell extract preys; [8],25.0597
same,"Fold changes, HaCat, TX1BP3",HaCat cell extract preys; [9],1.007
same,Ratio DLG1_1/MBP,HaCat cell extract preys; [10],6.858
same,Ratio DLG1_2/MBP,HaCat cell extract preys; [11],9.323
same,Ratio SCRIB_1/MBP,HaCat cell extract preys; [12],1.193
same,Ratio SCRIB_2/MBP,HaCat cell extract preys; [13],2.996
same,Ratio SNX27/MBP,HaCat cell extract preys; [14],25.0597
same,Ratio TX1BP3/MBP,HaCat cell extract preys; [15],1.007
same,"Fold changes, HeLa, DLG1_1",HeLa cell extract preys; bait MBP-PDZ DLG1_1,1.011
same,"Fold changes, HeLa, DLG1_2",HeLa cell extract preys; bait MBP-PDZ DLG1_2,4.653
same,"Fold changes, HeLa, SCRIB_1",HeLa cell extract preys; bait MBP-PDZ SCRIB_1,16.1327
same,"Fold changes, HeLa, SCRIB_2",HeLa cell extract preys; bait MBP-PDZ SCRIB_2,1.595
same,"Fold changes, HeLa, SNX27",HeLa cell extract preys; bait MBP-PDZ SNX27,14.9763
same,"Fold changes, HeLa, TX1BP3",HeLa cell extract preys; bait MBP-PDZ TX1BP3,0.7931
same,"Fold changes, Jurkat, DLG1_1",[3]; [4],3.92
same,"Fold changes, Jurkat, DLG1_2",[3]; [5],17.9481
same,"Fold changes, Jurkat, SCRIB_1",[3]; [6],13.9686
same,"Fold changes, Jurkat, SCRIB_2",[3]; [7],1.428
same,"Fold changes, Jurkat, SNX27",[3]; [8],34.2386
same,"Fold changes, Jurkat, TX1BP3",[3]; [9],1.643
same,Ratio DLG1_1/MBP,[3]; [10],3.92
same,Difference log2,"[3]; bait DLG1_2 PDZ vs MBP, enrichment of prey",4.166
same,Ratio DLG1_2/MBP,[3]; [11],17.9481
same,Ratio SCRIB_1/MBP,[3]; [12],13.9686
same,Ratio SCRIB_2/MBP,[3]; [13],1.428
same,Ratio SNX27/MBP,[3]; [14],34.2386
same,Ratio TX1BP3/MBP,[3]; [15],1.643
same,"pKd, measured in literature",DLG1_1/2,8.785

# Reference: publication PMC9482650, “Quantitative fragmentomics allow affinity mapping of interactomes” (Nature Communications, 2022)
